# Measurements taken from patent US20030236218A1, “Aryl phosphate derivatives of d4T with selective activity against adenovirus and HIV” (priority 2002, published 2003).
# Marks after values point to notes of the source that are not given here.
# Tests used:
# [1] = Pharmacokinetic studies in mice, intravenous administration; format: in vivo, Balb/c mice; conditions: plasma analyte = label, after i.v. 100 mg/kg compound 113
# Description: Female Balb/c mice (6-8 weeks old) from Taconic (Germantown, N.Y.) were housed in a controlled environment (12-hours of light/12-hours of dark, 22±1° C., 60±10% relative humidity), which is fully accredited by the USDA. All rodents were housed in microisolator cages (Lab Products, Inc., NJ) containing autoclaved bedding. The mice were allowed free access to autoclaved pellet food and tap water throughout the study.
# Blood samples (˜500 μL) were obtained from the ocular venous plexus by retro-orbital venipuncture at 0, 2, 5, 10, 15, 30, 45, 60, 120, 240 and 360 minutes after intravenous injection.
# All collected blood samples were heparinized and centrifuged at 7000×g for 5 minutes to separate the plasma fraction from the whole blood. The plasma samples were then processed immediately using the extraction procedure described above.
# Pharmacokinetic modeling and parameter calculations were carried out using the WinNonlin Professional Version 3.0 (Pharsight, Inc., Mountain, Calif.) pharmacokinetics software (Chen et al., Pharm. Res., 16, 1003 (1999); Chen et al., Pharm. Res., 16, 117 (1999); Chen et al., J. Clin. Pharmacol., 39, 1248 (1999); Uckun et al., Clin. Cancer Res., 5, 2954 (1999); and Uckun et al., J. Pharmacol. Exp. Ther., 291, 1301 (1999)). An appropriate model was chosen on the basis of the lowest sum of weighted squared residuals, the lowest Schwartz Criterion (SC), the lowest Akaike's Information Criterion (AIC) value, the lowest standard errors of the fitted parameters, and the dispersion of the residuals. The elimination half-life was estimated by linear regression analysis of the terminal phase of the plasma concentration-time profile. The area under the concentration-time curve (AUC) was calculated according to the linear trapezoidal rule between the first sampling time (0 hours) and the last sampling time plus C/k, where C is the concentration of the last sampling and k is the elimination rate constant. The systemic clearance (CL) was determined by dividing the dose by the AUC. The metabolic clearance of the parent drug, the formation clearance of the metabolite, the clearance elimination of the metabolite, and the distribution clearance of the metabolite were estimated by simultaneous fitting of the concentration of parent drug and metabolites as a function of time curve to pharmacokinetic models (see FIGS. 7A & 8A) specified as a system of differential equations (Gabrielsson & Weiner, Phamacokinetic/Phamacodynamic Data Analysis: Concepts and Applications, Swedish Pharmaceutical Press (1997)).
# [2] = Octanol/water partition coefficient, shake flask method; format: physicochemical; conditions: 4 hours at room temperature
# Description: HPLC purification was achieved using a reverse-phase Lichrospher column (250×4 mm, Hewlett-Packard, RP-18, Cat. #79925) and an isocratic flow (1 ml/minute) consisting of water (70%) and acetonitrile (30%). Melting points were determined using a Melt John's apparatus and are uncorrected. Column chromatography was performed using silica gel obtained from Baker Company. The octanol/water partition coefficient was determined by the shake flask method. The phosphoramidate analogs were added to 2 ml of water and 2 ml of octanol in a glass vial. The mixture was shaken for 4 hours at room temperature. The two phases were carefully separated and filtered through a Millipore filter and analyzed by HPLC. The partition coefficient was calculated using the ratio of the area under the curve for octanol and water, respectively.
# Solubility = format: physicochemical
# [3] = Hydrolysis rate in alkali conditions; format: physicochemical
# Description: (§1) Statistical analysis. Each drug was tested at 6-7 different concentrations ranging from 0.0001 μM to 100 μM. Each assay was set up in triplicate wells and repeated 1-3 times. An IC50 value was calculated from each set of triplicate wells using nonlinear regression modeling of the exponential form of the linearized equation (Statview, SAS Institute, Inc., Cary, N.C.). Hydrolysis rates were determined by fitting single exponential decay equations to the disappearance of the compound in alkali conditions (all R^2 values greater than 0.85). The IC50 values obtained were correlated to the log transformed hydrolysis rate constants by fitting a linear model (JMP Software, SAS Institute Inc., Cary, N.C.). P-values less than 0.05 were deemed significant.
# [4] = tested on: adenovirus strain Type 5, strain adenoid 75; assay: Adenovirus plaque formation assay in skin fibroblast cell line SF; format: cell-based, human adenovirus; conditions: Adenovirus Type 5, 7 days, ± s.e., read-out: IC50, ADV-induced plaque formation
# From the text: Virus stocks. The HIV-1 strain used in this study was HTLV-IIIB (Uckun et al., 1998 Antimicro. Agents and Chemother., 42:383-388). The non-HIV viruses included in the present study were the gancyclovir-sensitive cytomegalovirus (CMV) strain AD169 (ATCC VR-538); acyclovir-sensitive herpes simplex virus (HSV) Type I strain HF (ATCC VR-260); acyclovir-sensitive HSV Type II strain G (ATCC VR-734); adenovirus strain Type 5, strain adenoid 75 (ATCC VR-5); enterovirus strain, ECHO 30, strain Bastianni (ATCC VR-322); and respiratory syncytial virus (RSV), strain Long (ATCC VR-26).
# Plaque formation assays. Plaque assays were used to examine the activity of the compounds against non-HIV viruses. The skin fibroblast cell line SF (ATCC CRL-2097) was used as a target for AD169, Adenovirus Type 5. […] cell line (ATCC CCL-81) was used as a target for HSV HF and G. The HEP-2 cell line (ATCC CCL-23) was used as a target for the RSV strain Long. These cell lines were cultured at 1×10^5 cells/well in 24-well (all but ECHO 30-infected SF) or 6-well (ECHO 30-infected SF) tissue culture plates with 0.9% methylcellulose or 0.4% SeaPlaque agarose semisolid support. Minimum Essential Medium (MEM) with Earle's salts (Gibco), L-glutamine, non-essential amino acids, 2% heat-inactivated fetal bovine serum, 1% penicillin/streptomycin, and 0.05% gentamicin served as the culture medium. The incubation times were 3 days for HF, G, ECHO 30, and Long; and 7 days for AD169 and Adenovirus Type 5. Plaque counting was performed with a 20X dissecting microscope for AD169, Type 5, ECHO 30, and RSV Long, and with a light box for HF and G. The fixative agent was crystal violet for all viruses, except for the CMV strain AD169 for which methylene blue was used. Percent inhibition of plaque formation was calculated by comparing the plaque numbers from the test substance-treated infected cells with the plaque numbers from untreated infected cells (i.e., virus controls). The IC50 values were determined using the Statview statistics program (SAS Institute, Inc., Cary, N.C.).
# as §1, with “Hydrolysis rates were determined by fitting single exponential decay equations to the disappearance of the compound in alkali conditions (all R^2 values greater than 0.85).” left out
# The skin fibroblast cell line SF (ATCC CRL-2097) was used as a target for AD169, Adenovirus Type 5, and ECHO 30; the VERO cell line (ATCC CCL-81) was used as a target for HF and G; and the HEP-2 cell line (ATCC CCL-23) was used as target for the RSV strain Long. Results are expressed as the average IC50 values in μM. Stavudine (STV) was included as a control.
# [5] = estimate from composite curve of pooled data
SMILES,"Vss [1, 5] [L/kg]",Vss ([1]; mean ± S.E.M),Oct/Water (log P) [2],Solubility (Solubility) [µg/mL],Hydrolysis Rate [3] [min⁻¹],IC50 [4] [nM]
COC(=O)[C@H](C)NP(=O)(OC[C@@H]1C=C[C@H](n2cc(C)c(=O)[nH]c2=O)O1)Oc1ccc(Br)cc1 (stereo partly shown),0.8521,(1005.3 ± 134.0) ml/kg,–,–,–,–
COC(=O)[C@H](C)NP(=O)(OCC1C=CC(n2cc(C)c(=O)[nH]c2=O)O1)Oc1ccc(Br)cc1 (stereo partly shown),0.7311,(791.8 ± 113.1) ml/kg,–,–,–,–
"COC(=O)[C@H](C)NP(=O)(OCC1C=CC(n2cc(C)c(=O)[nH]c2=O)O1)Oc1ccc(OC)cc1 (stereo partly shown) [Compound 598, 5′-[4-Methoxyphenyl methoxylaninylphosphate]-2′, 3′-didehydro-3′-deoxy thymidine]",–,–,0.39,11900,0.0102,555 ± 115
"COC(=O)[C@H](C)NP(=O)(OCC1C=CC(n2cc(C)c(=O)[nH]c2=O)O1)Oc1cccc(N(C)C)c1 (stereo partly shown) [Compound 599, 5′-[3-Dimethylaminophenyl methoxylaninylphosphate]-2′, 3′-didehydro-3′-deoxy thymidine]",–,–,0.76,18000,0.0058,230 ± 20
"COC(=O)C(C)NP(=O)(OCC1C=CC(n2cc(C)c(=O)[nH]c2=O)O1)Oc1c(OC)cccc1OC (stereo not shown) [Compound 600, 5′-[2,6-Dimethoxyphenylmethoxyalaninyl phosphate]-2′, 3′-didehydro-3′-deoxy thymidine]",–,–,0.40,43600,0.0029,290 ± 120
"COC(=O)[C@H](C)NP(=O)(OCC1C=CC(n2cc(C)c(=O)[nH]c2=O)O1)Oc1ccc(C#N)cc1 (stereo partly shown) [Compound 601, 5′-[4-Cyanophenylmethoxyalaninyl phosphate]-2′, 3′-didehydro-3′-deoxy thymidine]",–,–,0.05*,4000,0.1199,575 ± 5
"COC(=O)C(C)NP(=O)(OCC1C=CC(n2cc(C)c(=O)[nH]c2=O)O1)Oc1cccc(Br)c1 (stereo not shown) [Compound 602, 5′-[3-Bromophenylmethoxyalaninyl phosphate]-2′, 3′-didehydro-3′-deoxy thymidine]",–,–,–,–,0.0338,235 ± 145
"COC(=O)C(C)NP(=O)(OCC1C=CC(n2cc(C)c(=O)[nH]c2=O)O1)Oc1ccc(Br)cc1Cl (stereo not shown) [Compound 603, 5′-[4-Bromo-2-chlorophenylmethoxyalaninyl phosphate]-2′, 3′-didehydro-3′-deoxy thymidine]",–,–,1.81,1800,0.1500,80 ± 10
"COC(=O)[C@H](C)NP(=O)(OCC1C=CC(n2cc(C)c(=O)[nH]c2=O)O1)Oc1ccc(F)cc1 (stereo partly shown) [Compound 604, 5′-[4-Flurophenylmethoxyalaninyl phosphate]-2′, 3′-didehydro-3′-deoxy thymidine]",–,–,0.54,7500,0.0117,100 ± 40
"COC(=O)C(C)NP(=O)(OCC1C=CC(n2cc(C)c(=O)[nH]c2=O)O1)Oc1ccccc1Br (stereo not shown) [Compound 605, 5′-[2-Bromophenylmethoxyalaninyl phosphate]-2′, 3′-didehydro-3′-deoxy thymidine]",–,–,0.95,4200,0.0336,38.5 ± 22
"COC(=O)C(C)NP(=O)(OCC1C=CC(n2cc(C)c(=O)[nH]c2=O)O1)Oc1ccccc1Cl (stereo not shown) [Compound 606, 5′-[2-Chlorophenylmethoxyalaninyl phosphate]-2′, 3′-didehydro-3′-deoxy thymidine]",–,–,0.84,7300,0.0370,28.5 ± 12
"COC(=O)[C@H](C)NP(=O)(OCC1C=CC(n2cc(C)c(=O)[nH]c2=O)O1)Oc1ccccc1 (stereo partly shown) [Compound 607, 5′-[Phenyl methoxylaninylphosphate]-2′, 3′-didehydro-3′-deoxy thymidine]",–,–,0.38,44700,0.0082,57.5 ± 23
"COC(=O)C(C)NP(=O)(OCC1C=CC(n2cc(C)c(=O)[nH]c2=O)O1)Oc1cc(Cl)ccc1Cl (stereo not shown) [Compound 608, 5′-[2,5-Dichlorophenylmethoxyalaninyl phosphate]-2′, 3′-didehydro-3′-deoxy thymidine]",–,–,1.41,3700,0.1840,33 ± 17
